Assay results reported in PubChem BioAssay AID179 (DTP/NCI, 2004).
Where “and” joins values, the source holds several entries; their conditions need not be identical. Equal entries are not always repeated. Calls of active or inactive are those of the source.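 How the source made its calls: active means compounds giving half or more protection of infected cells from virus-caused growth loss, again on retest; inactive means the rest.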

Tested on: CEM cells HIV-1 protection, formazan growth assay
Assay: NCI AIDS Antiviral Assay
Details: for IC50: measured here: growth of uninfected CEM cells
Outline: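 Steps: treat uninfected and HIV-1-infected human CEM cells at five drug levels; quantify growth by soluble formazan; retest any compound reaching 50% protection; classify actives from the retest.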

[CH3][Hg]/[N]=C(/N)NC#N
outcome: inactive

CS(=O)(=O)N(CCC#N)c1ccc(/C=C2\N=C(c3ccccc3Cl)OC2=O)cc1
EC50: > 219 µM | IC50: > 219 µM

COc1ccc(/C(=N/OCCCC(=O)O)c2cccs2)cc1
outcome: inactive

CC(C)(C)C1CCC2c3c([nH]c4ccccc34)C3C(=O)N(c4ccc(Br)cc4)C(=O)C3C2C1 (stereo not drawn)
EC50: > 14.5 µM | IC50: > 14.5 µM

c1ccc2c(c1)C1=NCCN1c1ccccc1-2
EC50: > 309 µM | IC50: 1.86 µM

Cc1cc(-c2ccc(N=Nc3c(S(=O)(=O)O)cc4cc(S(=O)(=O)O)cc(N)c4c3O)c(C)c2)ccc1N=Nc1cc(S(=O)(=O)O)c2ccccc2c1O
outcome: inactive

N#CNc1nc(C(=O)Nc2ccc(Cl)cc2)cc(-c2ccccc2)n1
EC50: > 355 µM | IC50: > 355 µM

CN(C)CCCOc1ccc(/C=C2/CCC/C(=C/c3ccc(OCCCN(C)C)cc3)C2=O)cc1
EC50: > 15.1 µM | IC50: 1.05 µM

CC[C@@H]1CC2CC3c4[nH]c5ccccc5c4CCN(C2)C31 (stereo partly drawn)
outcome: inactive

Nc1nc(N)c2c(-c3ccccc3)ccnc2n1
EC50: > 195 µM | IC50: 162 µM

CN1CC(C)(C)C(=O)c2ccccc21
EC50: > 200 µM | IC50: > 200 µM

Cc1ccc2c(c1)CSCCO2
EC50: > 105 µM | IC50: 14.8 µM

O=C(O)c1cc2c([nH]1)-c1cc(C(=O)O)c(C(=O)O)nc1C(=O)C2=O
outcome: inactive

CC(C)(C)C(=O)Oc1ccc(/C=C/C(=O)c2ccc(OC(=O)C(C)(C)C)cc2)cc1
EC50: > 200 µM | IC50: 38 µM

Cc1ccc(NCC(=O)N2CC(=O)Nc3ccccc32)cc1
EC50: > 123 µM | IC50: > 123 µM

O=C(O)CCCCCCCCCCCF
EC50: > 200 µM | IC50: 186 µM

CCCCCCCCCCCCCCCCCCCCC(C(=O)OCC)S(=O)(=O)O (stereo not drawn)
EC50: > 100 µM | IC50: 19.5 µM

Cn1c2c(c3ccccc31)C1C(=O)N(c3ccccc3)C(=O)C1CC2 (stereo not drawn)
EC50: > 57.5 µM | IC50: > 57.5 µM

COc1cc(/C=C/C(=O)CC(=O)/C=C/c2ccc(O)c(OC)c2)ccc1O
EC50: > 200 µM | IC50: 19.1 µM and 75.9 µM

Cc1ccc(C)c(N2C(=O)C(=O)C(c3nc4ccccc4o3)/C(=N/N)C2=O)c1 (stereo not drawn)
outcome: inactive

O=[N+]([O-])c1ccc(CSCc2ccc([N+](=O)[O-])cc2)cc1
EC50: > 200 µM | IC50: > 200 µM

O=C(O)CN(c1ccccc1)S(=O)(=O)c1ccc(NC(=O)c2ccccc2)cc1
outcome: inactive

Cn1c(=O)oc2cc(C(=S)N3CCCCC3)ccc21
EC50: > 200 µM | IC50: > 200 µM

O=C(NC12CC3CC(NC(=O)c4ccccc4)(CC(C1)c1ccccc13)C2)c1ccccc1
EC50: > 12 µM | IC50: > 12 µM

N#CCN1CCCCCC1
EC50: > 200 µM | IC50: > 200 µM

Cc1c(Cl)cccc1NC(=O)C(=O)C(C(=O)c1ccccc1-c1ccccc1)C1OC(=O)c2ccccc21 (stereo not drawn)
EC50: > 69.2 µM | IC50: 26.3 µM

O=C1c2ccccc2NC(=O)C2C1C(c1ccccc1)CC2(O)c1ccccc1 (stereo not drawn)
EC50: > 200 µM | IC50: 33.1 µM

C/C(=N/NC(N)=S)C(CN(C)C)C(C1=C(O)c2ccccc2OC1)c1ccccc1 (stereo not drawn)
EC50: > 141 µM | IC50: 107 µM

O=c1[nH]c2c(nc1NC13CC4CC(CC(C4)C1)C3)c(=O)oc1ccccc12
EC50: > 2 µM | IC50: > 2 µM

COc1ccc(C(=O)O/N=C2/CCC/C2=C\c2ccccc2)cc1
outcome: inactive

CC(=O)Oc1cccc2c(/C=N/NC(N)=S)ncc(C)c12
EC50: > 200 µM | IC50: 1.23 µM

CCOP(=O)(OCC)/C(C#N)=C/c1cccc(Br)c1
outcome: inactive

CCc1cccc(C(=O)NCCN(C)C)c1[N+](=O)[O-]
EC50: > 200 µM | IC50: > 200 µM

CCn1cnnc1-c1nsc2ccccc12
EC50: > 81.3 µM | IC50: 75.9 µM

N=C(N)N1CCc2ccccc2C1
EC50: > 200 µM | IC50: > 200 µM

CC(C)(N)Cc1ccccc1Cl
EC50: > 200 µM | IC50: > 200 µM

COC(=O)CC(=O)OSc1ccccc1
EC50: > 251 µM | IC50: 18.2 µM

COC(=O)c1ccc(/C=C2\CCc3ccccc3C2=O)cc1
EC50: > 200 µM | IC50: > 200 µM

CC12C/C(=C\c3ccccc3)C(=O)C3C1CCCC32
outcome: inactive

CC(C)C(NC(=O)C(Cc1ccccc1)NC(=O)[C@H]1CCC[C@H]1NC(=O)C(Cc1ccc(OC(C)(C)C)cc1)NC(=O)OC(C)(C)C)C(N)=O (stereo partly drawn)
EC50: > 200 µM | IC50: 29.5 µM

CC(C)(C)c1cc(Oc2ccc(C#N)c(C#N)c2)cc(C(C)(C)C)c1
EC50: > 40.7 µM | IC50: > 40.7 µM

COC(=O)Cc1c([C@@]2(C)CCCC(C)(C)C2)ccc2c1C(=O)OC2
outcome: inactive
